# Test results reported in article PMC12396409, “Screening and hit evaluation of a microbial metabolite library against the pathogenic Plasmodium falciparum and Toxoplasma gondii parasites” (International Journal for Parasitology: Drugs and Drug …, 2025).
# Like-named read-outs stand apart in the source and are kept apart here.
# How the values were obtained:
# [1] = system: P. falciparum 3D7 parasites; assay: P. falciparum growth inhibition assay, 2-cycle (120 h treatment), delayed-death screen and dose-response; assay type: cell-based, Plasmodium falciparum; conditions: for activity at 2 µg/mL: Plasmodium falciparum
# [2] = system: T. gondii RH strain (RH-Tub-eYFP) tachyzoites; assay: microbe, parasite or virus in culture; assay type: cell-based, Toxoplasma gondii; conditions: 72 h; for percent parasite growth at 2 µg/mL: Toxoplasma gondii
# [3] = system: P. falciparum 3D7 parasites; assay: P. falciparum growth inhibition assay, 1-cycle (72 h treatment), SYBR DNA staining (library screen at 2 μg/mL and dose-response); assay type: cell-based, Plasmodium falciparum; conditions: for activity at 2 µg/mL: Plasmodium falciparum
# [4] = P. falciparum 3D7, 120 h, parasite screen at 2 μg/mL, % growth, replicate 1
# [5] = P. falciparum 3D7, 120 h, parasite screen at 2 μg/mL, % growth, replicate 2
# [6] = T. gondii, parasite screen at 2 μg/mL, % growth, replicate 1
# [7] = T. gondii, parasite screen at 2 μg/mL, % growth, replicate 2
# [8] = P. falciparum 3D7, 72 h, parasite screen at 2 μg/mL, % growth, replicate 1
# [9] = P. falciparum 3D7, 72 h, parasite screen at 2 μg/mL, % growth, replicate 2
# [10] = 3D7, P. falciparum, 120 h, screen at 2 μg/mL, replicate 1, read-out: Pf_120h_%Growth_Rep1
# [11] = 3D7, P. falciparum, 120 h, screen at 2 μg/mL, replicate 2, read-out: Pf_120h_%Growth_Rep2
# [12] = 3D7, P. falciparum, 72 h, screen at 2 μg/mL, replicate 1, read-out: Pf_72h_%Growth_Rep1
# [13] = 3D7, P. falciparum, 72 h, screen at 2 μg/mL, replicate 2, read-out: Pf_72h_%Growth_Rep2
# [14] = library screen at 2 μg/mL, % growth, replicate 1, read-out: Tg_72h_%Growth_Rep1
# [15] = library screen at 2 μg/mL, % growth, replicate 2, read-out: Tg_72h_%Growth_Rep2
# [16] = library screen at 2 μg/mL, 120 h, % growth, replicate 1
# [17] = library screen at 2 μg/mL, 120 h, % growth, replicate 2
# [18] = library screen at 2 μg/mL, % growth, replicate 1
# [19] = library screen at 2 μg/mL, % growth, replicate 2
# [20] = library screen at 2 μg/mL, 72 h, % growth, replicate 1
# [21] = library screen at 2 μg/mL, 72 h, % growth, replicate 2
structure (smiles),measurement,setting,value
COc1ccc2c(c1OC)C(=O)O[C@@H]2[C@H]1c2c(cc3c(c2OC)OCO3)CCN1C [BIA-N1938],Pf_120h_%Growth_Rep1,[1]; [4],166.83%
same,Pf_120h_%Growth_Rep2,[1]; [5],79.12%
same,Tg_72h_%Growth_Rep1,[2]; [6],85.42%
same,Tg_72h_%Growth_Rep2,[2]; [7],102.99%
same,Pf_72h_%Growth_Rep1,[3]; [8],84.86%
same,Pf_72h_%Growth_Rep2,[3]; [9],78.38%
CN(C)[C@@H]1C(O)=C(C(N)=O)C(=O)[C@@]2(O)C(O)=C3C(=O)c4c(O)cccc4[C@@](C)(O)[C@H]3C[C@@H]12 [Tetracycline],activity at 2 µg/mL,[1]; [10],164%
same,activity at 2 µg/mL,[1]; [11],73.9%
same,percent parasite growth at 2 µg/mL,[2]; read-out: Tg_72h_%Growth_Rep1,103%
same,percent parasite growth at 2 µg/mL,[2]; read-out: Tg_72h_%Growth_Rep2,101%
same,activity at 2 µg/mL,[3]; [12],62.1%
same,activity at 2 µg/mL,[3]; [13],83.3%
CCCCc1ccc(C(=O)O)nc1 [Fusaric acid],activity at 2 µg/mL,"[1]; 3D7, 120 h, library screen at 2 μg/mL, 120 h, % growth, replicate 1, read-out: Pf_120h_%Growth_Rep1",80.2%
same,activity at 2 µg/mL,"[1]; 3D7, 120 h, library screen at 2 μg/mL, 120 h, % growth, replicate 2, read-out: Pf_120h_%Growth_Rep2",85%
same,percent parasite growth at 2 µg/mL,[2]; [14],118%
same,percent parasite growth at 2 µg/mL,[2]; [15],83.8%
same,activity at 2 µg/mL,"[3]; 3D7, 72 h, library screen at 2 μg/mL, 72 h, % growth, replicate 1, read-out: Pf_72h_%Growth_Rep1",78%
same,activity at 2 µg/mL,"[3]; 3D7, 72 h, library screen at 2 μg/mL, 72 h, % growth, replicate 2, read-out: Pf_72h_%Growth_Rep2",31.2%
CCCC[C@@H](C)[C@@H](OC(=O)C[C@@H](CC(=O)O)C(=O)O)[C@H](C[C@@H](C)C[C@H](O)CCCC[C@@H](O)C[C@H](O)[C@H](C)N)OC(=O)C[C@@H](CC(=O)O)C(=O)O [Fumonisin B1],Pf_120h_%Growth_Rep1,[1]; [16],97.02%
same,Pf_120h_%Growth_Rep2,[1]; [17],120.58%
same,Tg_72h_%Growth_Rep1,[2]; [18],135.48%
same,Tg_72h_%Growth_Rep2,[2]; [19],98.34%
same,Pf_72h_%Growth_Rep1,[3]; [20],90.20%
same,Pf_72h_%Growth_Rep2,[3]; [21],119.39%
Cc1nnc2n1-c1sc(CCC(=O)N3CCOCC3)cc1C(c1ccccc1Cl)=NC2 [WEB 2086],activity at 2 µg/mL,[1]; [10],157%
same,activity at 2 µg/mL,[1]; [11],84.4%
same,percent parasite growth at 2 µg/mL,"[2]; T. gondii, screen at 2 μg/mL, replicate 1, read-out: Tg_72h_%Growth_Rep1",91.8%
same,percent parasite growth at 2 µg/mL,"[2]; T. gondii, screen at 2 μg/mL, replicate 2, read-out: Tg_72h_%Growth_Rep2",110%
same,activity at 2 µg/mL,[3]; [12],87.3%
same,activity at 2 µg/mL,[3]; [13],87.4%
[N-]=[N+]=NCC(=O)N[C@H](CO)[C@H](O)c1ccc([N+](=O)[O-])cc1 [Azidamfenicol],activity at 2 µg/mL,"[1]; 3D7, library screen at 2 μg/mL, 120 h, % growth, replicate 1, read-out: Pf_120h_%Growth_Rep1",64.6%
same,activity at 2 µg/mL,"[1]; 3D7, library screen at 2 μg/mL, 120 h, % growth, replicate 2, read-out: Pf_120h_%Growth_Rep2",95.3%
same,percent parasite growth at 2 µg/mL,[2]; [14],129%
same,percent parasite growth at 2 µg/mL,[2]; [15],103%
same,activity at 2 µg/mL,"[3]; 3D7, library screen at 2 μg/mL, 72 h, % growth, replicate 1, read-out: Pf_72h_%Growth_Rep1",82.7%
same,activity at 2 µg/mL,"[3]; 3D7, library screen at 2 μg/mL, 72 h, % growth, replicate 2, read-out: Pf_72h_%Growth_Rep2",84.9%
CC(=O)O[C@H]1CCC2(C)C3=C(CCC2C1(C)C)[C@@]1(C)CC[C@@H](C(C)CCC=C(C)C)[C@]1(C)CC3 (stereo partly drawn) [Euphol acetate],Pf_120h_%Growth_Rep1,[1]; [16],60.77%
same,Pf_120h_%Growth_Rep2,[1]; [17],92.36%
same,Tg_72h_%Growth_Rep1,[2]; [18],114.80%
same,Tg_72h_%Growth_Rep2,[2]; [19],105.35%
same,Pf_72h_%Growth_Rep1,[3]; [20],66.07%
same,Pf_72h_%Growth_Rep2,[3]; [21],91.20%
COc1cc2nccc3c4ccccc4n(c1=O)c23 [BIA-M1940],Pf_120h_%Growth_Rep1,[1]; [4],112.19%
same,Pf_120h_%Growth_Rep2,[1]; [5],105.38%
same,Tg_72h_%Growth_Rep1,[2]; [6],156.47%
same,Tg_72h_%Growth_Rep2,[2]; [7],73.09%
same,Pf_72h_%Growth_Rep1,[3]; [8],95.54%
same,Pf_72h_%Growth_Rep2,[3]; [9],122.74%
